Reference: US10925854B2, “Methods and compositions for preventing or treating fatty liver, protecting liver function or ameliorating liver diseases caused by fatty liver or other associated disorders” (SINEW PHARMA INC., priority 2015, dated 2021)

Key:
[1] = test system: HepG2 fatty liver cells (induced with oleic acid); experiment: Reduction of TG content in oleic acid-induced HepG2 fatty liver cells; format: cell-based, human; details: Homo sapiens, 72 h; tested substances 1.0 uM, fatty liver cells from HepG2; read-out: TG reduction rate
Method: The activity of the various compounds of the present invention in reduction of fat content was analyzed by using human hepatoma cell line Hep G2.
HepG2 cell lines (15×10^6 cells) were cultured in DMEM culture No. B, incubated in an incubator with 5% CO2 at 37° C. for 24 hours, cultured in DMEM culture No. C (serum-free medium) for 24 hours, and finally cultured in DMEM culture No. D (containing oleate/albumin complex) for another 48 hours to induce HepG2 cell lines to form fatty liver cells.
HepG2 cell lines were divided into six groups, including: (1) Blank: no treatment; (2) DMSO group: cells from Blank were treated with dimethyl sulfoxide (DMSO); (3) Control: induction with oleic acid to form fatty liver cells; (4) Vehicle group: fatty liver cells formed by induction with oleic acid were treated with DMSO; (5) Positive control: fatty liver cells were treated with silymarin; and (6) Test Group: fatty liver cells were treated with various compounds of the present invention.
After incubation for 72 hours, the treated cells from each group were successively washed twice with PBS, and then incubated with 0.5 ml of trypsin/EDTA for 3 minutes. Afterwards, the cells were scraped with 2 ml of PBS and then transferred to the centrifuge tube to be shattered by ultrasonic. 20 μl of the cell extracts was taken to determine the content of protein. TG determination was performed using commercially available combination of agents (Randox). The TG content obtained above was divided by the protein content to obtain a ratio, representing a relative TG content in the cells.
The equation for calculating reduction rate (%) of TG was as follows: [1−(TG content of Test Group−TG content of Blank)/(TG content of Oleic acid induction Group−TG content of Blank)]×100%.

[2] = test system: B6 mice fed with high fat feed (fatty liver); experiment: Liver lipids (TG, TC in liver) in mice with induced fatty liver; format: in vivo
Method: (§1) B6 mice recommended in the specification “Method for evaluating the liver protection and health care efficacies of health food” announced by the Department of Health were chosen for animal testing. More than four (4) mice were used in each group of the pre-test, while more than twelve (12) mice were used in each group of the confirmatory test. Male mice bred at 23±2° C. in an animal room with 55±15% relative humidity under normal light/dark cycle (7:00 AM-7:00 PM lights on/7:00 PM-7:00 AM lights off) and weighing 18-23 g were purchased from BioLASCO (Taipei) and housed at Laboratory Animal Center in National Defense Medical Center. The animal test was carried out according to the guideline for animal experiment of National Health Research Institutes. Mice were fed with normal feed at 3-5 g/day and unlimited supply of water for 1-2 weeks and investigated for health condition. The weight of mice was recorded once a week.
(§2) The tested animals were grouped randomly into Blank, High Fat Diet control (HFD), Positive Control (PS), and Test group. The animals of Blank were fed with normal feed. The animals of HFD were fed with high fat feed. The animals of PS were fed with high fat feed, and additionally fed with silymarin (5 mg/kg/day) by a tube. The animals of Test group were fed with high fat feed, and additionally force-fed with test compounds by a tube.
(§3) The animals of Blank were fed casually with normal feed for 12 weeks, while the animals of HFD, PS, and Test group were fed casually with high fat feed for 12 weeks. After 8 weeks of feeding, the animals of Blank and HFD were fed with deionized water by a tube once a day; the animals of PS were fed with silymarin by a tube once a day; and the animals of Test Group were fed with test compounds by a tube once a day for a duration of 4 or 8 weeks.
In addition, abdominal fat and liver specimens were taken from the abdomens of sacrificed mice and weighted to compare the weight of fat and liver and obtain a ratio of liver weight to body weight. Two tissue blocks with a volume of approximately 1 cm^3 were cut from the largest right lobe of liver, fixed in 10% neutral formalin solution, and then embedded with paraffin for sectioning and H&E staining for histopathological observation. Moreover, the rest of the liver was frozen for preservation and detection of the contents of triglyceride and total cholesterol in the liver. Furthermore, the liver function of animals of each group were analyzed by Galactose Single Point Method, which was recognized and recommended for quantification of remaining liver function in clinical use by U.S. FDA and Ministry of Health and Welfare, Taiwan. At the end of the tests, 0.5 g of galactose (G.S.P.® 0.4 g/mL) per kg of animal was administered via intravenous. One hour after the administration, about 0.5 ml of whole blood was taken by using a filter paper to evaluate liver function of mice. The higher the value of GSP was, the worse the remaining liver function would be (FDA: “Guidance for Industry: Pharmacokinetics in Patients with Impaired. Hepatic Function—Study Design, Data Analysis and Impact on Dosing and. Labeling. 2003).

[3] = test system: B6 mice fed with high fat feed (fatty liver); experiment: Liver histopathology (H&E) and NAS score in mice with induced fatty liver; format: in vivo; details: for large vesicular fat droplets within liver cells in liver tissue section: H&E sections, treatment for 4 weeks (FIG. 1); for effect on liver damages (NAS, in words): fatty liver mice
Method: as §1, §2, §3
At the end of the test, all mice were sacrificed. One tissue block with a volume of approximately 1 cm^3 was cut from the largest right lobe of liver, fixed in 10% neutral formalin, and then dehydrated and hyalinized in various concentrations of ethanol (30, 50, 70, 95, 99.5%) and xylene. Afterwards, xylene was replaced with hot paraffin solution. At last, the tissue was embedded with paraffin solution. The finished paraffin specimen was cut into 5 pun-thickness paraffin sections by the microtome. The sections were pasted on clean slides, dried at 37° C., and then stained by H&E staining.
Liver tissue sections were deparaffinized in xylene for 30 minutes, and then successively rehydrated in 99.5%, 95%, 70%, 50%, and 30% ethanol for 30 minutes, respectively. After being soaked in distilled water for 10 minutes, the sections could be stained. The sections were first immersed in hematoxylin for 30 seconds to stain cell nuclei, then washed with distilled water for a few minutes, stained with eosin for 2-5 minutes, and washed with distilled water for a few minutes again. […]
In order to observe the changes of lesion, fat accumulation, necrosis, or fibrosis in liver cells when there was an ongoing liver damage, liver tissues were H&E stained to evaluate the degree of liver fat accumulation. […] As for the assessment of semi-quantitative analysis in pathology, it had to be confirmed by a physician or a veterinary pathologist who conducted a double-blind analysis to score (NAS score)^16 and compare all the sections without knowing the test design. […]

[4] = test system: B6 mice fed with high fat feed (fatty liver); experiment: Serum ALT and AST (liver dysfunction) in mice with induced fatty liver; format: in vivo
Method: as §1, §2, §3
Before testing and in the eighth (8th), twelfth (12th), and sixteenth (16th) week after testing, blood was collected from the cheek or the heart. At the end of testing, all mice were weighted and then sacrificed, and blood was collected from the cheek or the heart simultaneously. The blood specimens of mice was placed at room temperature for one hour to clot, and then the serum was separated by centrifugation in a refrigeration centrifuge at 15,700×g at 4° C. for 5 minutes. Afterwards, biochemical indices of liver function, including aspartate transaminase (AST), alanine aminotransferase (ALT), triglyceride (TG), total cholesterol (TCHO/TC), low-density lipoprotein cholesterol (LDL-C), and high-density lipoprotein cholesterol (HDL-C), were detected by the automatic blood biochemistry analyzer.

[5] = test system: B6 mice fed with high fat feed (fatty liver); experiment: Liver antioxidant capacity (Gpx, GSH, Grd, SOD) in mice with induced fatty liver; format: in vivo; details: for effect on liver antioxidant activity (in words): fatty liver mice
Method: as §1, §2, §3
About 0.1 g of liver tissue was taken from the sacrificed animal and homogenized by centrifuge with a biomasher for 10 minutes. A 9-fold weight (w/w) of buffer (pH 7.4, 50 mmol/L Tris-HCl, 180 mmol/L KCl) was added to the homogenized tissue, which was then mixed well by a Vortex mixer for subsequent use. The resulting homogenization solution samples of liver tissue was used for the analysis of various members of liver antioxidant systems, including glutathione peroxidase (GPx), glutathione (GSH), glutathione reductase (Grd), and superoxide dismutase (SOD). Methods of related analysis can be found in the known literatures, for example, the draft of “Method for evaluating the liver protection and health care efficacies of health food” announced by the Ministry of Health and Welfare, Taiwan.

[6] = Abdominal fat weight, liver weight and increase of body weight in high fat feed mice; format: in vivo, B6 mice; details: fatty liver mice
Method: as §1, §2
The animals of Blank were fed casually with normal feed for 12 weeks, while the animals of HFD, PS, and Test group were fed casually with high fat feed for 12 weeks. […]
In addition, abdominal fat and liver specimens were taken from the abdomens of sacrificed mice and weighted to compare the weight of fat and liver and obtain a ratio of liver weight to body weight. […] Furthermore, the liver function of animals of each group were analyzed by Galactose Single Point Method, which was recognized and recommended for quantification of remaining liver function in clinical use by U.S. FDA and Ministry of Health and Welfare, Taiwan. […]

Compound	inhibition at 1 µM [1] [%]	effect on TC in liver (in words) [2]	effect on TG in liver (in words) [2]	large vesicular fat droplets within liver cells in liver tissue section [3]	effect on liver damages (NAS, in words) [3]	effect on ALT and AST values (in words) [4]	effect on liver antioxidant activity (in words) [5]	effect on weight of abdominal fat (in words) [6]	Gpx, GSH, Grd, and SOD levels (in words) ([5]; 4-week treatment)
O=C1C[C@@H](c2ccc(O)c(O)c2)Oc2cc(O)cc(O)c21 [eriodictyol]	35.1 ± 0.87	reduces TC in liver significantly	reduces TG in liver significantly	significantly reduced	can significantly reduce liver damages	can significantly reduce ALT and AST values	can significantly enhance antioxidant activity		
OC[C@@H](O)[C@@H](O)[C@H](O)[C@H](O)CO [mannitol]	22.4 ± 5.74	reduces TC in liver significantly	reduces TG in liver significantly	significantly reduced	can significantly reduce liver damages	can significantly reduce ALT and AST values	can significantly enhance antioxidant activity	reduces the weight of abdominal fat in animals significantly	substantial increases
CC1CCC(C(C)C)C(O)C1 (stereo not drawn) [menthol]	66.2 ± 1.87	reduces TC in liver significantly	reduces TG in liver significantly	significantly reduced		can significantly reduce ALT and AST values		reduces the weight of abdominal fat in animals significantly	
OC[C@H]1O[C@H](O[C@]2(CCl)O[C@H](CCl)[C@@H](O)[C@@H]2O)[C@H](O)[C@@H](O)[C@H]1Cl [sucralose]	26.7 ± 2.93	reduces TC in liver significantly	reduces TG in liver significantly			can significantly reduce ALT and AST values		reduces the weight of abdominal fat in animals significantly	
